Laboratory results taken from patent publication US10829520B2, “Beta-hairpin peptidomimetics” (POLYPHOR AG, priority 2015, dated 2020).
Read-outs that look alike come from different tables or passages of the source. Where a SMILES comes first, the peptide text is derived from it. Bridges are numbered along the chain shown (N, C = ends). Roman numbers before positions name the chains, in order. [ ]: non-standard residue; d: D form. Tle = CC(C)(C)[C@H](N)C(=O)O; dDab = NCC[C@@H](N)C(=O)O; hSer = N[C@@H](CCO)C(=O)O; Dab = NCC[C@H](N)C(=O)O; dAze = O=C(O)[C@H]1CCN1

Tests used:
Type in all cases: cell-based
[1] = tested on: Escherichia coli ATCC 25922
Procedure, shortened: (§1)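 Broth microdilution per CLSI, cation-adjusted MH-II medium, 0.002% (v/v) polysorbate 80 final. Approx. 10^6 CFU/mL inoculum, incubated 35° C for 18-20 h; MIC read as absence of visible growth.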

[2] = tested on: Klebsiella pneumoniae SSI #3010
Procedure, shortened: as §1

Escherichia coli 926415 = tested on: Escherichia coli 926415
[3] = tested on: Acinetobacter baumannii 872842
[4] = tested on: Klebsiella pneumoniae 968733
[5] = tested on: Acinetobacter baumannii DSM 30008
Procedure, shortened: as §1

[6] = tested on: Pseudomonas aeruginosa ATCC 27853
Procedure, shortened: as §1

[7] = tested on: human red blood cells (hRBC); experiment: Hemolysis of human red blood cells
Procedure, shortened: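 Percent lysis of washed human erythrocytes after 1 h at 37° C. with 100 μg/mL peptide, calculated from OD540 of 8-fold diluted supernatant as a fraction of the 2.5% Triton X-100 value.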

[8] = clinical isolate, Mueller-Hinton II broth, P-80 0.002% present

SMILES | Escherichia coli ATCC 25922 MIC ([1]; ATCC 25922) | Klebsiella pneumoniae SSI #3010 MIC ([2]; SSI #3010) | Escherichia coli 926415 MIC (Escherichia coli 926415; 926415) | Acinetobacter baumannii 872842 MIC [3]; 872842 | Klebsiella pneumoniae 968733 MIC [4]; 968733 | Acinetobacter baumannii DSM 30008 MIC ([5]; DSM 30008) | Pseudomonas aeruginosa ATCC 27853 MIC ([6]; ATCC 27853) | Hemolysis at 100 μg/mL ([7]; red cells of human, 1 h, 100) | Escherichia coli ATCC 25922 MIC ([1]; Mueller-Hinton II broth) | Klebsiella pneumoniae SSI #3010 MIC ([2]; Mueller-Hinton II broth) | Escherichia coli 926415 MIC (Escherichia coli 926415; [8]) | Acinetobacter baumannii 872842 MIC [3, 8] | Klebsiella pneumoniae 968733 MIC [4, 8] | Acinetobacter baumannii DSM 30008 MIC ([5]; Mueller-Hinton II broth) | Pseudomonas aeruginosa ATCC 27853 MIC ([6]; Mueller-Hinton II broth) | Hemolysis at 100 μg/mL ([7]; 100 μg/mL, 20% hRBC, 1 h at 37° C.)
CC(C)C[C@@H]1NC(=O)[C@@H](CC(C)C)NC(=O)[C@H](CCN)NC(=O)[C@@H](NC(=O)[C@H](CCN)NC(=O)[C@@H](NC(=O)[C@H](CCN)NC(=O)CC[C@@H]2NC(=O)[C@@H]3CSSC[C@H](NC(=O)[C@H](Cc4c[nH]c5ccccc45)NC(=O)[C@H](CCN)NC(=O)[C@@H](CCN)NC2=O)C(=O)N[C@@H](C(C)(C)C)C(=O)N[C@@H]([C@@H](C)O)C(=O)N[C@@H](CO)C(=O)N2CCC[C@@H]2C(=O)N2CCC[C@H]2C(=O)N[C@@H](CC(C)C)C(=O)N[C@@H](CO)C(=O)N[C@@H](Cc2ccc(O)cc2)C(=O)N3)[C@@H](C)O)CCNC(=O)[C@H]([C@@H](C)O)NC(=O)[C@H](CCN)NC(=O)[C@H](CCN)NC1=O [Ex. 98] (I: cyclo(LSYCE[dDab][Dab]WC[Tle]TS[dP]P) / II: [Dab]T[Dab][Dab][Dab][dL]L[Dab][Dab]T; disulfide I:4-I:9; amide I:5-II:N; lactam II:4-II:C) |  |  |  |  |  |  |  |  | 0.125 µg/mL | 0.125 µg/mL | 0.5 µg/mL | 0.25 µg/mL | 0.5 µg/mL | 0.0625 µg/mL | 0.25 µg/mL | 2%
CC(C)C[C@@H]1NC(=O)[C@@H](CC(C)C)NC(=O)[C@H](CCN)NC(=O)[C@@H](NC(=O)[C@H](CCN)NC(=O)[C@@H](NC(=O)[C@H](CCN)NC(=O)CC[C@@H]2NC(=O)[C@H]([C@@H](C)O)NC(=O)[C@H](Cc3ccc(O)cc3)NC(=O)[C@H]([C@@H](C)O)NC(=O)[C@H](C(C)C)NC(=O)[C@@H]3CCCN3C(=O)[C@H]3CCN3C(=O)[C@H]([C@@H](C)O)NC(=O)[C@H](C)NC(=O)[C@H](C(C)(C)C)NC(=O)[C@H]([C@@H](C)O)NC(=O)[C@H](Cc3c[nH]c4ccccc34)NC(=O)[C@H]([C@@H](C)O)NC(=O)[C@@H]([C@H](C)O)NC2=O)[C@@H](C)O)CCNC(=O)[C@H]([C@@H](C)O)NC(=O)[C@H](CCN)NC(=O)[C@H](CCN)NC1=O [Ex. 100] (I: cyclo(AT[dAze]PVTYTE[dT]TWT[Tle]) / II: [Dab]T[Dab][Dab][Dab][dL]L[Dab][Dab]T; amide I:9-II:N; lactam II:4-II:C) | 0.0625 µg/mL | 0.125 µg/mL | 0.5 µg/mL | 0.25 µg/mL | 2 µg/mL | 0.0625 µg/mL | 0.125 µg/mL | 2% |  |  |  |  |  |  |  | 
CC(C)C[C@@H]1NC(=O)[C@@H](CC(C)C)NC(=O)[C@H](CCN)NC(=O)[C@@H](NC(=O)[C@H](CCN)NC(=O)[C@@H](NC(=O)[C@H](CCN)NC(=O)CC[C@@H]2NC(=O)[C@H](CCO)NC(=O)[C@H](Cc3ccc(O)cc3)NC(=O)[C@H]([C@@H](C)O)NC(=O)[C@H](C(C)C)NC(=O)[C@@H]3CCCN3C(=O)[C@@H](C)NC(=O)[C@H](CO)NC(=O)[C@H](C)NC(=O)[C@H](C(C)(C)C)NC(=O)[C@H](CCO)NC(=O)[C@H](Cc3c[nH]c4ccccc34)NC(=O)[C@H](CCO)NC(=O)[C@@H](CCN)NC2=O)[C@@H](C)O)CCNC(=O)[C@H]([C@@H](C)O)NC(=O)[C@H](CCN)NC(=O)[C@H](CCN)NC1=O [Ex. 102] (I: cyclo(AS[dA]PVTY[hSer]E[dDab][hSer]W[hSer][Tle]) / II: [Dab]T[Dab][Dab][Dab][dL]L[Dab][Dab]T; amide I:9-II:N; lactam II:4-II:C) | 0.0625 µg/mL | 0.125 µg/mL | 0.25 µg/mL | 0.5 µg/mL | 0.5 µg/mL | 0.0625 µg/mL | 0.125 µg/mL | <1% |  |  |  |  |  |  |  | 

Second part, led by results:

Escherichia coli ATCC 25922 MIC ([1]; ATCC 25922) | Klebsiella pneumoniae SSI #3010 MIC ([2]; SSI #3010) | Escherichia coli 926415 MIC (Escherichia coli 926415; 926415) | Acinetobacter baumannii 872842 MIC [3]; 872842 | Klebsiella pneumoniae 968733 MIC [4]; 968733 | Acinetobacter baumannii DSM 30008 MIC ([5]; DSM 30008) | Pseudomonas aeruginosa ATCC 27853 MIC ([6]; ATCC 27853) | SMILES | Hemolysis at 100 μg/mL ([7]; red cells of human, 1 h, 100) | Escherichia coli ATCC 25922 MIC ([1]; Mueller-Hinton II broth) | Klebsiella pneumoniae SSI #3010 MIC ([2]; Mueller-Hinton II broth) | Escherichia coli 926415 MIC (Escherichia coli 926415; [8]) | Acinetobacter baumannii 872842 MIC [3, 8] | Klebsiella pneumoniae 968733 MIC [4, 8] | Acinetobacter baumannii DSM 30008 MIC ([5]; Mueller-Hinton II broth) | Pseudomonas aeruginosa ATCC 27853 MIC ([6]; Mueller-Hinton II broth) | Hemolysis at 100 μg/mL ([7]; 100 μg/mL, 20% hRBC, 1 h at 37° C.)
0.25 µg/mL | 0.5 µg/mL | 1 µg/mL | 1 µg/mL | 1 µg/mL | 0.5 µg/mL | 0.5 µg/mL | CC(C)C[C@@H]1NC(=O)[C@@H](CC(C)C)NC(=O)[C@H](CCN)NC(=O)[C@@H](NC(=O)[C@H](CCN)NC(=O)[C@@H](NC(=O)[C@H](CCN)NC(=O)CC[C@@H]2NC(=O)[C@H](CCN)NC(=O)[C@H](Cc3ccc(O)cc3)NC(=O)[C@H](CO)NC(=O)[C@H](CC(C)C)NC(=O)[C@@H]3CCCN3C(=O)[C@H]3CCCN3C(=O)[C@H](CO)NC(=O)[C@H](Cc3ccc(O)cc3)NC(=O)[C@H](C(C)C)NC(=O)[C@H](CCN)NC(=O)[C@H](Cc3c[nH]c4ccccc34)NC(=O)[C@H](CCN)NC(=O)[C@@H](CCN)NC2=O)[C@@H](C)O)CCNC(=O)[C@H]([C@@H](C)O)NC(=O)[C@H](CCN)NC(=O)[C@H](CCN)NC1=O [Ex. 95] (I: cyclo(LSY[Dab]E[dDab][Dab]W[Dab]VYS[dP]P) / II: [Dab]T[Dab][Dab][Dab][dL]L[Dab][Dab]T; amide I:5-II:N; lactam II:4-II:C) | 1% |  |  |  |  |  |  |  | 
0.125 µg/mL | 0.25 µg/mL | 0.25 µg/mL | 1 µg/mL | 1 µg/mL | 0.25 µg/mL | 0.5 µg/mL | CC(C)C[C@@H]1NC(=O)[C@@H](CC(C)C)NC(=O)[C@H](CCN)NC(=O)[C@@H](NC(=O)[C@H](CCN)NC(=O)[C@@H](NC(=O)[C@H](CCN)NC(=O)CC[C@@H]2NC(=O)[C@H](CCN)NC(=O)[C@H](Cc3ccc(O)cc3)NC(=O)[C@H](CO)NC(=O)[C@H](CC(C)C)NC(=O)[C@@H]3CCCN3C(=O)[C@H]3CCCN3C(=O)[C@H](Cc3ccc(O)cc3)NC(=O)[C@H]([C@@H](C)O)NC(=O)[C@H](C(C)C)NC(=O)[C@H](CCN)NC(=O)[C@H](Cc3c[nH]c4ccccc34)NC(=O)[C@H](CCN)NC(=O)[C@@H](CCN)NC2=O)[C@@H](C)O)CCNC(=O)[C@H]([C@@H](C)O)NC(=O)[C@H](CCN)NC(=O)[C@H](CCN)NC1=O [Ex. 96] (I: cyclo(W[Dab]VTY[dP]PLSY[Dab]E[dDab][Dab]) / II: [Dab]T[Dab][Dab][Dab][dL]L[Dab][Dab]T; amide I:12-II:N; lactam II:4-II:C) | 4% |  |  |  |  |  |  |  | 
0.125 µg/mL | 0.25 µg/mL | 0.25 µg/mL | 0.25 µg/mL | 0.5 µg/mL | 0.25 µg/mL | 0.5 µg/mL | CC(C)C[C@@H]1NC(=O)[C@H](CCN)NC(=O)[C@@H](CCN)NC(=O)[C@H](CCC(=O)N[C@@H](CCN)C(=O)N[C@H](C(=O)N[C@@H](CCN)C(=O)N[C@H]2CCNC(=O)[C@H]([C@@H](C)O)NC(=O)[C@H](CCN)NC(=O)[C@H](CCN)NC(=O)[C@H](CC(C)C)NC(=O)[C@@H](CC(C)C)NC(=O)[C@H](CCN)NC2=O)[C@@H](C)O)NC(=O)[C@H](CCN)NC(=O)[C@H](Cc2ccc(O)cc2)NC(=O)[C@H](CO)NC(=O)[C@H](CC(C)C)NC(=O)[C@@H]2CCCN2C(=O)[C@H]2CCCN2C(=O)[C@H](Cc2ccc(O)cc2)NC(=O)[C@H]([C@@H](C)O)NC(=O)[C@H](C(C)C)NC(=O)[C@H](CCN)NC1=O [Ex. 99] (I: cyclo(LSY[Dab]E[dDab][Dab]L[Dab]VTY[dP]P) / II: [Dab]T[Dab][Dab][Dab][dL]L[Dab][Dab]T; amide I:5-II:N; lactam II:4-II:C) | 4% |  |  |  |  |  |  |  | 
0.625 µg/mL | 0.0625 µg/mL | 0.125 µg/mL | 0.25 µg/mL | 0.0625 µg/mL | 0.0625 µg/mL | 0.125 µg/mL | CC(C)C[C@@H]1NC(=O)[C@@H](CC(C)C)NC(=O)[C@H](CCN)NC(=O)[C@@H](NC(=O)[C@H](CCN)NC(=O)[C@@H](NC(=O)[C@H](CCN)NC(=O)CC[C@@H]2NC(=O)[C@H](CCN)NC(=O)[C@H](Cc3ccc(O)cc3)NC(=O)[C@H]([C@@H](C)O)NC(=O)[C@H](C(C)C)NC(=O)[C@@H]3CCCN3C(=O)[C@@H](C)NC(=O)[C@H](CO)NC(=O)[C@H](C)NC(=O)[C@H](C(C)(C)C)NC(=O)[C@H](CCO)NC(=O)[C@H](Cc3c[nH]c4ccccc34)NC(=O)[C@H](CCO)NC(=O)[C@@H](CCN)NC2=O)[C@@H](C)O)CCNC(=O)[C@H]([C@@H](C)O)NC(=O)[C@H](CCN)NC(=O)[C@H](CCN)NC1=O [Ex. 103] (I: cyclo([dDab][hSer]W[hSer][Tle]AS[dA]PVTY[Dab]E) / II: [Dab]T[Dab][Dab][Dab][dL]L[Dab][Dab]T; amide I:14-II:N; lactam II:4-II:C) | 1% |  |  |  |  |  |  |  | 
